Test results reported in patent publication US10781224B2, “Bis(oxymethyl)phosphinic acid and biogenic metal salts thereof as regulators of plant growth and development” (priority 2016, dated 2020).

How the values were obtained:
Assay type in all cases: in vivo
[1] = tested on: rice (Diamant variety); assay: Rice seed treatment with BHMPA salts: germinating power; conditions: for Mass, dry, sprout, + % to control / Mass, wet, root / Mass, wet, root, + % to control / Mass, wet, sprout / Mass, wet, sprout, + % to control / Length, root / Length, root, + % to control / Length, sprout / Length, sprout, + % to control / Mass, dry, root / Mass, dry, root, + % to control / Mass, dry, sprout: rice seeds
Experimental: (§1) Experimental versions—soaking seeds in BHMPA solutions and solutions of BHMPA Ca, Mg, Na, Co, Mn, Cu, and Zn salts at 1·10^−6-1·10^−12% concentrations (doses). The studies were conducted in laboratory in Petri dishes; seed bed—two layers of filter paper. 50 seeds soaked in water (control) and in the solutions of the tested compounds (experimental) were placed into each dish. Wheat, corn, and rice seeds were exposed for one hour.
(§2) Seed germination energy and rate were calculated in percent as an arithmetic mean of the four experimental results (germination energy on the 4th day, wheat germination on the 8th day, rice and corn germination—on the 7th day). Germination was determined based on the germinating power indicators (length of the roots and sprouts and their wet and dry mass per 100 shoots).
(§3) The effect of pre-sowing seed treatment with the claimed BHMPA salts of biogenic metals was studied on winter wheat (Vershin variety), corn (Krasnodar 385 MV variety), and rice (Diamant variety).
The above data describe the seed viability only at the initial stage of germination, while the germination ability at the later stage of germination is defined by the initial germinating power. The method for the determination of the germinating power comprises measuring the height of the sprouts and primary roots, as well as the biomass and the dry mass thereof per 100 seedlings. [M. A. Kartuzova. Initial Germinating Power as Method of Biological Assessment of Seed Quality. Selection and Seed Farming, #2, 1953].

[2] = tested on: rice (Diamant variety); assay: Rice seed treatment with BHMPA salts: germination energy and germination rate
Experimental: (§4) Control—Soaking Seeds in Water;
as §1
(§5) Analysis was conducted according to the government standards GOST 12038-84 “Crop seeds. Technical conditions for determining the germination energy and germination rate”, GOST 12044-93 “Crop seeds. Methods for determining disease contamination.”
as §2, §3

[3] = tested on: corn (Krasnodar 385 MV variety); assay: Corn seed treatment with BHMPA salts: germination energy and germination rate
Experimental: as §4, §1, §5, §2, §3

[4] = solution concentration 1 · 10^−10%
[5] = solution concentration 1 · 10^−11%
[6] = solution concentration 1 · 10^−12%
[7] = rice, vs control, 1·10^−9% solution
[8] = rice seed treatment, solution 1 · 10^−9%
[9] = seed treatment, concentration 1 · 10^−6%
[10] = seed treatment, concentration 1 · 10^−7%
[11] = seed treatment, concentration 1 · 10^−8%
[12] = seed treatment, concentration 1 · 10^−9%
[13] = seed treatment, concentration 1 · 10^−10%
[14] = seed treatment, concentration 1 · 10^−11%
[15] = seed treatment, concentration 1 · 10^−12%
[16] = comparative study vs Melaphen, 1·10^−10% solution

## O=P([O-])(CO)CO.O=P([O-])(CO)CO.[Ca+2] [Ca-salt, Calcium BHMPA Salt]
[1]; [4]
  Mass, dry, sprout, + % to control: 38%
  Mass, wet, root: 1.27 g/100 plantlings
  Mass, wet, root, + % to control: 32%
  Mass, wet, sprout: 2.28 g/100 plantlings
  Mass, wet, sprout, + % to control: 29.5%
[1]; [5]
  Length, root: 6.0 cm
  Length, root, + % to control: 15%
  Length, sprout: 2.9 cm
  Length, sprout, + % to control: 16%
  Mass, dry, root: 0.23 g/100 plantlings
  Mass, dry, root, + % to control: 35%
  Mass, dry, sprout: 0.27 g/100 plantlings
  Mass, dry, sprout, + % to control: 28.5%
  Mass, wet, root: 1.22 g/100 plantlings
  Mass, wet, root, + % to control: 27%
  Mass, wet, sprout: 1.98 g/100 plantlings
  Mass, wet, sprout, + % to control: 12.5%
[1]; [6]
  Length, root: 5.6 cm
  Length, root, + % to control: 8%
  Length, sprout: 2.7 cm
  Length, sprout, + % to control: 8%
  Mass, dry, root: 0.19 g/100 plantlings
  Mass, dry, root, + % to control: 12%
  Mass, dry, sprout: 0.26 g/100 plantlings
  Mass, dry, sprout, + % to control: 24%
  Mass, wet, root: 1.06 g/100 plantlings
  Mass, wet, root, + % to control: 10%
  Mass, wet, sprout: 1.88 g/100 plantlings
  Mass, wet, sprout, + % to control: 7%
[1]; [7]
  dry mass of the roots increased by: 76%
  dry mass of the sprouts increased by: 52%
  length of the root increased by: 27%
  length of the sprout increased by: 28%
  wet mass of the roots increased by: 34%
  wet mass of the sprouts increased by: 34%
[2]; [8]
  Germination energy, %: 86.3%
  Germination rate, %: 93.3%
[2]; rice, 1·10^−10% solution
  Germination energy: 85.0%
  Germination rate: 92.0%
[2]; [9]
  Germination energy: 75.9%
  Germination rate: 81.0%
[2]; [10]
  Germination energy: 76.0%
  Germination rate: 83.3%
[2]; [11]
  Germination energy: 79.3%
  Germination rate: 85.0%
[2]; [12]
  Germination energy: 82.0%
  Germination rate: 87.0%
[2]; [13]
  Germination energy: 85.0%
  Germination rate: 92.0%
[2]; [14]
  Germination energy: 83.3%
  Germination rate: 89.3%
[2]; [15]
  Germination energy: 78.3%
  Germination rate: 84.3%
[3]; 1·10^−6% solution
  Germination energy: 74.3%
  Germination rate: 77.0%
[3]; 1·10^−7% solution
  Germination energy: 77.3%
  Germination rate: 82.0%
[3]; 1·10^−8% solution
  Germination energy: 81.8%
  Germination rate: 84.2%
[3]; 1·10^−9% solution
  Germination energy: 85.0%
  Germination rate: 87.7%
[3]; 1·10^−10% solution
  Germination energy: 87.8%
  Germination rate: 90.0%
[3]; 1·10^−11% solution
  Germination energy: 85.5%
  Germination rate: 88.3%
[3]; 1·10^−12% solution
  Germination energy: 82.3%
  Germination rate: 85.0%
[3]; [16]
  Germination energy: 85.0%
  Germination rate: 95.3%
